Assay [1] concerns the target T1, Vitamin D3 receptor (Homo sapiens, UniProt P11473).
T1 sequence (P11473 whole entry): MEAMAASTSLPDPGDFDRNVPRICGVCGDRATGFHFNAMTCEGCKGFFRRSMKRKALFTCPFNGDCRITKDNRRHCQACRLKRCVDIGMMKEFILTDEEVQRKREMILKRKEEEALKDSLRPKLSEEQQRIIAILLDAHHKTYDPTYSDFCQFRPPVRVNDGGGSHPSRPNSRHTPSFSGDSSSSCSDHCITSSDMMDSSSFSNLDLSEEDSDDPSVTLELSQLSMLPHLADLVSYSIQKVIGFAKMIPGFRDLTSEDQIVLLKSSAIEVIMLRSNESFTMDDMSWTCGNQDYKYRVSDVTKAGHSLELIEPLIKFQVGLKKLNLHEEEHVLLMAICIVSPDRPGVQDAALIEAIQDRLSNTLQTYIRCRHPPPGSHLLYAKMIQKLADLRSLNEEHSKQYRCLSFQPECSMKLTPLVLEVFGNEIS
The experiment in a line: Inhibition of transactivation of human VDR in COS7 cells. The format is functional, cell-based, COS-7.

In assay [2] the target is T1, Vitamin D3 receptor. The experiment in a line: Antagonistic activity against human VDR in presence of 1,25(OH)2D3. The format is functional.

Take `C[C@H](/C=C/C[C@H](O)C12CC3CC(CC(C3)C1)C2)[C@H]1CC[C@H]2/C(=C/C=C3C[C@@H](O)C[C@H](O)C3)CCC[C@]12C`: the IC50 on Vitamin D3 receptor [1] is 0.4 µM; on Vitamin D3 receptor [2] it was 0.05 µM.

`C=C1C[C@H](C[C@@H](C)[C@H]2CC[C@H]3/C(=C/C=C4C[C@@H](O)C(=C)[C@H](O)C4)CCC[C@]23C)OC1=O` returned a 50% inhibitory concentration (IC50) against Vitamin D3 receptor [1] of 0.3 µM.

The values above are taken from ChEMBL document CHEMBL1149414, “Vitamin D receptor: ligand recognition and allosteric network” (J Med Chem, 2006).
